Test results as given in patent US8501911B2, “Methods of reducing inflammation and mucus hypersecretion” (Biomarck Pharmaceuticals, Ltd, priority 1999, dated 2013).
“And” between values parts separate entries of the source, which are not always exact repeats. Equal entries are not always repeated. Where two headings read alike, the source gives them in different places. Residues, ends and D or L forms follow the SMILES beside them. *: point of attachment. Myristoyl = CCCCCCCCCCCCCC(=O)*

Legend:
[1] = test system: LPS-primed human neutrophils; experiment: MPO secretion from LPS-primed human neutrophils; format: cell-based
Protocol: Results-I-11 and Results-I-12 show MPO secretion from LPS-primed human neutrophils as a model for humans, and Results-I-13, Results-I-14, and Results-I-15 show MPO secretion from LPS-primed canine neutrophils as a model for canines. In all of these experiments, isolated neutrophils were stimulated with LPS at a concentration of 1×10^−6 M for 10 minutes at 37° C. prior to adding the stimuli. The LPS primes the cells so they can respond to a secretagogue.
Thus, in one comparative experiment, when absorbance was monitored at 450 nm while observing MPO secretion from LPS-primed human neutrophils, Results-I-11 were obtained as follows.
In another comparative experiment, when absorbance was monitored at 450 nm while observing MPO secretion from LPS-primed human neutrophils, Results-I-12 were obtained as follows.
MPO Colorimetric Enzyme Assay—Samples were assayed for MPO activity in 96 well round bottom microtiter plates using a sandwich ELISA kit (R & D Systems, Minneapolis, Minn.). Briefly, 20 microliters of sample is mixed with 180 microliters of substrate mixture containing 33 mM potassium phosphate, pH 6.0, 0.56% Triton X-100, 0.11 mM hydrogen peroxide, and 0.36 mM O-Diannisidine Dihydrochloride in an individual microtiter well. […] After mixing, the assay mixture was incubated at room temperature for 5 minutes, and MPO enzyme activity determined spectrophotometrically at 550 nanometers. […]

[2] = test system: ozone-induced neutrophil migration into the airways; experiment: Mouse model of ozone-induced COPD (BAL analysis); format: in vivo; details: for % Neutrophils found in BAL fluid: intratracheal 1.0 mM peptide 30 min before ozone 2 hours (PBS + Ozone 21.4); for IFNγ in BAL fluid: peptide pretreatment then ozone (PBS + ozone approx. 18); for IL-6 in BAL fluid: peptide pretreatment then ozone (PBS + ozone approx. 197); for KC in BAL fluid: peptide pretreatment then ozone (PBS + ozone approx. 240); for % Inhibition of neutrophil migration into BAL fluid: relative to control group treated with PBS
Protocol: Ten-week-old Balb/C female mice were obtained from Charles River laboratories and housed under NIH guidelines in groups of 5 per cage. The animals received standard rodent diet and filtered water ad libitum. Three treatment groups of mice, 5 animals in each group, were each anesthetized by intraperitoneal injection of Ketamine (100 mg/kg) and Xylazine (20 mg/kg) and then pretreated by intratracheal administration with […] of either PBS alone, or a solution of 1.0 mM MANS peptide in PBS, or a solution of a 1.0 mM of a MANS-fragment-peptide designated as SEQ ID NO: 15 (MA-GAQFSKTAAK) in PBS. After 30 minutes, the animals were then placed in the appropriate custom-made chamber for ozone or forced air exposures. The animals were exposed to ozone for 2 hours (at ozone concentrations of 1-10 ppm by a slightly modified method described by Haddad et al, 1995. (Haddad E-B, Salmon M, Sun J, Liu S, Das A, Adcock I, Barnes P J, and Chung K F, FEBS Letters, 363:285-288, 1995). The ozone was generated using an ozone generator apparatus model OL80F/B from OzoneLab, Burton, British Columbia, Canada. Ozone concentration was continuously monitored using a Teledyne Photometric O3 Analyzer (model 400E, Teledyne Instruments, City of Industry, Calif.). Two additional groups of mice, each without any pretreatment, were either exposed to ozone under the same conditions or exposed to forced air under conditions similar to the ozone treatment group but absent ozone. After exposure, the animals were sacrificed by exsanguination and the lungs were serially lavaged 2 times with 1.0 mL aliquots of PBS. The collected bronchoalveolar lavage (BAL) fluid was centrifuged to remove the cells for subsequent counting and differential analysis. Recovered lavage fluid was used for protein and additional analysis of IL-6, IFNγ, and KC (murine IL-8 analog) by ELISA assay (assay kits obtained from R&D Systems, Minneapolis, Minn.).

[3] = test system: LPS-induced lung inflammation; format: in vivo, mouse; details: for Hb / MPO / LDH / Total Protein: BAL fluid; for % Inhibition of MPO: mouse, in vivo; for % Inhibition of neutrophil migration: relative to PBS/LPS treatment
Protocol: Thus, six to seven week old CD1 female mice weighing 15-20 grams were obtained from Charles River laboratories and housed in groups of 5 mice per cage. The animals received standard rodent diet and filtered water ad libitum. The animals were housed under NIH prescribed guidelines at standard temperature (64° to 79° F.) and relative humidity of 30 to 70%.
Four treatment groups of mice, with 5 animals in each group, were treated either with PBS followed by PBS, with PBS followed by LPS, with (myristoylated) MANS peptide followed by LPS, or with peptide of SEQ ID NO: 15 (MA-GAQFSKTAAK) followed by LPS.
Intranasal peptide instillation pre-treatment: A peptide of the invention to be evaluated in vivo for its ability to inhibit or reduce LPS-induced lung inflammation was dissolved in PBS at a concentration of 1 mM. Animals, anesthetized with 0.8% isofluorane by inhalation, were pretreated with 2×10 μl intranasal bolus of the peptide solution into one nostril 30 minutes prior to subsequent instillation with LPS.
Intranasal LPS instillation: Lipopolysaccharide (LPS) Endotoxin (Escherichia coli Serotype 011:B4 derived endotoxin; Sigma, St Louis, Mo.; see Sigma product information sheet L4130 titled Lipopolysaccharides from Escherichia coli 011:B4) was dissolved into phosphate buffered saline (PBS) at 2,500 μg/mL. To expose animals to endotoxin, a 10 μL intranasal bolus of 2,500 μg/ml endotoxin solution was administered to animals which had been anesthetized with 0.8% isofluorane by inhalation. The 10 μL bolus was applied into one nostril. Animals were monitored for labored breathing, lethargy, and decreased water/food intake following the endotoxin instillations.
Bronchoalveolar Lavage (BAL): Six hours after the last instillation, the animals were anesthetized (90 mg/kg Nembutal) and sacrificed by exsanguination. The lung was serially lavaged 2 times with 1.0 mL aliquots of PBS. The collected BAL fluid was centrifuged to remove the cells for subsequent counting and differential analysis. Recovered lavage fluid was used for analysis of total protein, myeloperoxidase (MPO), LDH, and hemoglobin.
Analysis: Aliquots of the BAL fluid were used immediately to assay for the levels of LDH, total protein, or hemoglobin (Hb) using the COBAS Fara analyzer (COBAS FARA II automated analyzer; Roche Diagnostic Systems Inc., Montclair, N.J.). An aliquot of BAL fluid was frozen at −80° C. for subsequent quantitation of myeloperoxidase (MPO) with a mouse-specific ELISA assay (Cell Sciences, Inc., Canton, Mass.). BAL data were analyzed by standard techniques to examine differences between the control and treatment groups.

SMILES	Diminished IL-6 levels (inhibition) vs. PBS control ([2]; after ozone exposure)	Effect on interferon-γ levels ([2]; after ozone exposure)	Reduced neutrophil cell infiltration in the BAL fluid vs. PBS control ([2]; after ozone exposure)	% Neutrophils found in BAL fluid [2]	IFNγ in BAL fluid [2]	IL-6 in BAL fluid [2]	KC in BAL fluid [2]	% Inhibition of neutrophil migration into BAL fluid [2]	% Inhibition of MPO [3]	% Inhibition of neutrophil migration [3]	other results
Nc1nc2c(nc(Br)n2[C@@H]2O[C@@H]3COP(=O)(O)O[C@H]3[C@H]2O)c(=O)[nH]1 [8-Br-cGMP]	–	–	–	–	–	–	–	–	–	–	Absorbance reading at 450 nm (MPO secretion) ([1]; cGMP alone, concentration not given): 0.155
CCCCCCCCCCCCCC(=O)NCC(=O)N[C@@H](C)C(=O)N[C@@H](CCC(N)=O)C(=O)N[C@@H](Cc1ccccc1)C(=O)N[C@@H](CO)C(=O)N[C@@H](CCCCN)C(=O)N[C@H](C(=O)N[C@@H](C)C(=O)N[C@@H](C)C(=O)N[C@@H](CCCCN)C(=O)NCC(=O)N[C@@H](CCC(=O)O)C(=O)N[C@@H](C)C(=O)N[C@@H](C)C(=O)N[C@@H](C)C(=O)N[C@@H](CCC(=O)O)C(=O)N[C@@H](CCCNC(=N)N)C(=O)N1CCC[C@H]1C(=O)NCC(=O)N[C@@H](CCC(=O)O)C(=O)N[C@@H](C)C(=O)N[C@@H](C)C(=O)N[C@H](C(=O)N[C@@H](C)C(=O)O)C(C)C)[C@@H](C)O [MANS peptide] (Myristoyl-GAQFSKTAAKGEAAAERPGEAAVA-OH; C-terminus assumed)	approximately 85%	little effect	93%±5%	1.5%	approximately 13 pg/ml	approximately 23 pg/ml	approximately 60 pg/ml	93.0%	67.2%	41.4%	Diminished IL-6 levels (inhibition) vs. PBS control ([2]; after ozone exposure, listed as MANS): 88%±8%; Total cells counted ([3]; BAL 6 h after LPS, intranasal 2×10 μl of 1 mM peptide 30 min before LPS, Table 3 (PBS/LPS 264,200)): 208,457; Hb ([3]; Table 3 (PBS/LPS 0.19)): 0.05 g/dL; MPO ([3]; Table 3 (PBS/LPS 28.98)): 9.49 ng/mL; LDH ([3]; Table 3 (PBS/LPS 60.40)): 68.57 units/L; Total Protein ([3]; Table 3 (PBS/LPS 272.40)): 175.00 µg/mL; % Neutrophils of total cells ([3]; Table 3 (PBS/LPS 41.7)): 30.9%; Total neutrophils counted ([3]; Table 3 (PBS/LPS 110,061)): 64,481
CCCCCCCCCCCCCC(=O)O[C@@H]1[C@@H](C)[C@@]2(O)[C@@H](C=C(CO)C[C@]3(O)C(=O)C(C)=C[C@@H]23)[C@@H]2C(C)(C)[C@]12OC(C)=O [PMA, phorbol 12-myristate 13-acetate]	–	–	–	–	–	–	–	–	–	–	Absorbance reading at 450 nm (MPO secretion) ([1]; 10 nM PMA, medium control 0.15): 0.19
CCCCCCCCCCCCCC(=O)NCC(=O)N[C@@H](C)C(=O)N[C@@H](CCC(N)=O)C(=O)N[C@@H](Cc1ccccc1)C(=O)N[C@@H](CO)C(=O)N[C@@H](CCCCN)C(=O)N[C@H](C(=O)N[C@@H](C)C(=O)N[C@@H](C)C(=O)N[C@@H](CCCCN)C(=O)O)[C@@H](C)O [SEQ ID NO: 15, N-myristoyl-GAQFSKTAAK] (Myristoyl-GAQFSKTAAK-OH; C-terminus assumed)	75%±8% and ~75%	little effect	47.7%±5%	11.2%	approximately 9 pg/ml	approximately 49 pg/ml	approximately 147 pg/ml	47.7%	95.4%	67.6%	Diminished KC concentrations (inhibition) vs. PBS control ([2]; after ozone exposure): 38%±5% and ~40%; Total Cell Counts ([3]; BAL 6 h after LPS, intranasal peptide 30 min before LPS, Table 4 (PBS/LPS 422,300)): 628,075; Hb ([3]; Table 4 (PBS/LPS 0.01)): 0.01 g/dL; MPO ([3]; Table 4 (PBS/LPS 17.33)): 0.79 ng/mL; LDH ([3]; Table 4 (PBS/LPS 107.80)): 110.75 units/L; Total Protein ([3]; Table 4 (PBS/LPS 157.40)): 120.25 µg/mL; % Neutrophils of total counts ([3]; Table 4 (PBS/LPS 28.2)): 6.1%; Total Neutrophil counts ([3]; Table 4 (PBS/LPS 119,114)): 38,548
